± gives the uncertainty stated by the source.
Test: xn = mol fraction of the nth substance listed

CS(=O)(=O)[O-].C[N+](C)(CCO)CCO + CCCO
viscosity [mPa·s], 101 kPa
Details | x1 = 0.0999 | x1 = 0.1996 | x1 = 0.2999 | x1 = 0.3987 | x1 = 0.498 | x1 = 0.5975 | x1 = 0.6972 | x1 = 0.7982 | x1 = 0.8978 | x1 = 1
298.15 K | 4.97 ± 0.3 | 11.64 ± 0.71 | 25.5 ± 1.5 | 50.9 ± 3.1 | 97.5 ± 6.3 | 196 ± 14 | 337 ± 28 | 576 ± 56 | 960 ± 100 | 1495 ± 180
303.15 K | 4.34 ± 0.26 | 9.88 ± 0.6 | 20.9 ± 1.3 | 40.6 ± 2.5 | 75.5 ± 4.7 | 149 ± 10 | 248 ± 19 | 414 ± 37 | 676 ± 68 | 1021 ± 110
308.15 K | 3.8 ± 0.23 | 8.45 ± 0.52 | 17.4 ± 1.1 | 32.9 ± 2 | 59.6 ± 3.6 | 114.8 ± 7.5 | 187 ± 14 | 304 ± 25 | 484 ± 45 | 716 ± 73
313.15 K | 3.36 ± 0.2 | 7.29 ± 0.44 | 14.66 ± 0.89 | 27 ± 1.6 | 47.7 ± 2.9 | 79.8 ± 5 | 142.8 ± 9.8 | 228 ± 17 | 355 ± 30 | 513 ± 48
318.15 K | 2.98 ± 0.18 | 6.35 ± 0.39 | 12.49 ± 0.76 | 22.5 ± 1.4 | 38.8 ± 2.4 | 63.7 ± 3.9 | 111.4 ± 7.3 | 174 ± 13 | 267 ± 21 | 378 ± 33
323.15 K | 2.66 ± 0.16 | 5.56 ± 0.34 | 10.92 ± 0.66 | 18.9 ± 1.1 | 32 ± 1.9 | 51.5 ± 3.1 | 79.8 ± 5 | 135.8 ± 9.2 | 203 ± 15 | 282 ± 23

CCCC[N+]1(C)CCCC1.O=S(=O)([O-])C(F)(F)F + O
100 kPa
Details | electrical conductivity [S/m] | viscosity [mPa·s]
288.15 K, x2 = 0.0597 | 0.147 ± 0.003 | 241.7 ± 6.9
288.15 K, x2 = 0.3197 | 0.297 ± 0.006 | 98.4 ± 2.2
288.15 K, x2 = 0.3766 | 0.344 ± 0.007 | 81.5 ± 1.7
288.15 K, x2 = 0.7673 | 1.04 ± 0.021 | 18.66 ± 0.38
293.15 K, x2 = 0.3197 | 0.368 ± 0.007 | 76.9 ± 1.6
293.15 K, x2 = 0.8612 | 1.72 ± 0.034 | 8.54 ± 0.17
298.15 K, x2 = 0.0597 | 0.238 ± 0.005 | 138.8 ± 3.4
298.15 K, x2 = 0.3766 | 0.521 ± 0.01 | 51.2 ± 1
298.15 K, x2 = 0.6794 | 1.15 ± 0.023 | 18.33 ± 0.37
298.15 K, x2 = 0.7673 | 1.51 ± 0.03 | 12.54 ± 0.26
298.15 K, x2 = 0.95 | 2.4 ± 0.048 | 2.88 ± 0.06
303.15 K, x2 = 0.3766 | 0.623 ± 0.013 | 41.65 ± 0.85
303.15 K, x2 = 0.95 | 2.77 ± 0.055 | 2.49 ± 0.05
308.15 K, x2 = 0.1203 | 0.415 ± 0.008 | 72.5 ± 1.5
308.15 K, x2 = 0.3766 | 0.736 ± 0.015 | 34.31 ± 0.7
313.15 K, x2 = 0.1956 | 0.581 ± 0.012 | 47.98 ± 0.99
313.15 K, x2 = 0.5819 | 1.42 ± 0.028 | 15.25 ± 0.31
318.15 K, x2 = 0.1203 | 0.586 ± 0.012 | 48.5 ± 1
318.15 K, x2 = 0.3197 | 0.89 ± 0.018 | 28.23 ± 0.58
323.15 K, x2 = 0.0597 | 0.612 ± 0.012 | 46.94 ± 0.98
323.15 K, x2 = 0.1956 | 0.795 ± 0.016 | 33.42 ± 0.69
323.15 K, x2 = 0.5819 | 1.87 ± 0.037 | 11.25 ± 0.23
323.15 K, x2 = 0.6794 | 2.43 ± 0.049 | 8.12 ± 0.17
323.15 K, x2 = 0.95 | 4.45 ± 0.089 | 1.52 ± 0.03
328.15 K, x2 = 0.3766 | 1.31 ± 0.026 | 17.72 ± 0.36
333.15 K, x2 = 0.5819 | 2.41 ± 0.048 | 8.59 ± 0.18

O=C([O-])CC(O)(CC(=O)[O-])C(=O)[O-].[K+].[K+].[K+] + CCOS(=O)(=O)[O-].CC[n+]1ccn(C)c1 + O
viscosity [mPa·s], 101.3 kPa
Details | 293.15 K | 298.15 K | 303.15 K | 308.15 K | 313.15 K
x1 = 0.0001822, x2 = 0.001795 | 1.082 ± 0.071 | 0.969 ± 0.071 | 0.854 ± 0.071 | 0.76 ± 0.071 | 0.688 ± 0.071
x1 = 0.0001842, x2 = 0.002697 | 1.117 ± 0.071 | 0.997 ± 0.071 | 0.886 ± 0.071 | 0.798 ± 0.071 | 0.719 ± 0.071
x1 = 0.0001964, x2 = 0 | 1.012 ± 0.071 | 0.9 ± 0.071 | 0.806 ± 0.071 | 0.73 ± 0.071 | 0.654 ± 0.07
x1 = 0.0002632, x2 = 0.003588 | 1.149 ± 0.071 | 1.029 ± 0.071 | 0.912 ± 0.071 | 0.824 ± 0.071 | 0.74 ± 0.071
x1 = 0.0005421, x2 = 0 | 1.019 ± 0.071 | 0.907 ± 0.071 | 0.813 ± 0.071 | 0.737 ± 0.071 | 0.661 ± 0.07
x1 = 0.0005539, x2 = 0.001794 | 1.091 ± 0.071 | 0.978 ± 0.071 | 0.863 ± 0.071 | 0.769 ± 0.071 | 0.697 ± 0.071
x1 = 0.0005561, x2 = 0.002696 | 1.127 ± 0.071 | 1.007 ± 0.071 | 0.896 ± 0.071 | 0.808 ± 0.071 | 0.729 ± 0.071
x1 = 0.0005675, x2 = 0.003587 | 1.157 ± 0.071 | 1.037 ± 0.071 | 0.921 ± 0.071 | 0.832 ± 0.071 | 0.749 ± 0.071
x1 = 0.0008894, x2 = 0 | 1.026 ± 0.071 | 0.914 ± 0.071 | 0.82 ± 0.071 | 0.744 ± 0.071 | 0.668 ± 0.07
x1 = 0.0009179, x2 = 0.001794 | 1.099 ± 0.071 | 0.986 ± 0.071 | 0.871 ± 0.071 | 0.776 ± 0.071 | 0.704 ± 0.071
x1 = 0.0009314, x2 = 0.002695 | 1.135 ± 0.071 | 1.015 ± 0.071 | 0.904 ± 0.071 | 0.816 ± 0.071 | 0.737 ± 0.071
x1 = 0.0009355, x2 = 0.003586 | 1.166 ± 0.071 | 1.046 ± 0.071 | 0.929 ± 0.071 | 0.841 ± 0.071 | 0.757 ± 0.071
x1 = 0.00126, x2 = 0 | 1.032 ± 0.071 | 0.92 ± 0.071 | 0.826 ± 0.071 | 0.75 ± 0.071 | 0.674 ± 0.071
x1 = 0.001287, x2 = 0.001793 | 1.106 ± 0.071 | 0.993 ± 0.071 | 0.878 ± 0.071 | 0.783 ± 0.071 | 0.712 ± 0.071
x1 = 0.001299, x2 = 0.002694 | 1.143 ± 0.071 | 1.023 ± 0.071 | 0.912 ± 0.071 | 0.824 ± 0.071 | 0.745 ± 0.071
x1 = 0.001316, x2 = 0.003585 | 1.174 ± 0.072 | 1.054 ± 0.071 | 0.937 ± 0.071 | 0.849 ± 0.071 | 0.765 ± 0.071
x1 = 0.001616, x2 = 0 | 1.038 ± 0.071 | 0.926 ± 0.071 | 0.832 ± 0.071 | 0.756 ± 0.071 | 0.68 ± 0.071
x1 = 0.001647, x2 = 0.001792 | 1.113 ± 0.071 | 1 ± 0.071 | 0.884 ± 0.071 | 0.79 ± 0.071 | 0.719 ± 0.071
x1 = 0.001665, x2 = 0.002693 | 1.15 ± 0.071 | 1.03 ± 0.071 | 0.92 ± 0.071 | 0.831 ± 0.071 | 0.753 ± 0.071
x1 = 0.001686, x2 = 0.003583 | 1.181 ± 0.072 | 1.061 ± 0.071 | 0.944 ± 0.071 | 0.856 ± 0.071 | 0.773 ± 0.071
x1 = 0.001985, x2 = 0 | 1.044 ± 0.071 | 0.932 ± 0.071 | 0.838 ± 0.071 | 0.762 ± 0.071 | 0.686 ± 0.071
x1 = 0.002026, x2 = 0.002692 | 1.158 ± 0.071 | 1.038 ± 0.071 | 0.926 ± 0.071 | 0.839 ± 0.071 | 0.759 ± 0.071
x1 = 0.002032, x2 = 0.001792 | 1.12 ± 0.071 | 1.007 ± 0.071 | 0.892 ± 0.071 | 0.798 ± 0.071 | 0.725 ± 0.071
x1 = 0.002072, x2 = 0.003582 | 1.19 ± 0.072 | 1.07 ± 0.071 | 0.954 ± 0.071 | 0.865 ± 0.071 | 0.78 ± 0.071

— the CheMixHub ionic liquid set
